# Reference: patent US11339147B2, “Lactam compound as FXR receptor agonist” (CSPC ZHONGQI PHARMACEUTICAL TECHNOLOGY (SHIJIAZHUANG) CO., …, priority 2017, dated 2022)
# Test system: NASH model
# Experiment: In vivo efficacy test: NASH model in mice by high-fat diet feeding and CCl4 induction
# Design: species or system C57/BL6 mice
# Settings: intragastric once a day for 28 days; for gene expression of collagen-alpha in the liver: FIG. 3; for total cholesterol (TC) and triglyceride (TG) levels in the liver: FIG. 2
# Source text: In this test, NASH model was established on mice by two procedures of high-fat diet feeding and CCl4 induction to test the effects of compounds on treating NASH. Briefly, the modeling process includes feeding C57/BL6 mice with high-fat diet to induce obesity in mice and produce non-alcoholic fatty liver disease; selecting 40 obese mice with a body weight >35 g when >80% of mice reached 35 g or more, continuously feeding with high-fat diet while intraperitoneal injection of CCl4 twice a week for four weeks; as for 10 normal animals in the same batch, feeding intraperitoneally with olive oil as a healthy control. The day when CCl4 feeding was started was set to the 0th day, and the time when CCl4 feeding was started was set to 0th hour. On the day when CCl4 feeding was started, the intragastric administration was started, 5 mL/kg once a day for 4 weeks, namely 28 days. Test doses of the compound were 15 mg/kg, 30 mg/kg, 60 mg/kg, respectively; healthy control and vehicle control were given vehicle 1% hydroxypropyl methylcellulose (HPMC). During the whole experiment period, the animals were weighed and their health was monitored every day. If there are special circumstances, the relevant project leader should be notified in time and the corresponding records should be made. On the 28th day, after all the animals were weighed, they were euthanized after narcotizing and blood collecting, and the liver was taken. After the blood sample was processed into serum, ALT/AST/TG/TC were tested; for parts of the liver samples, liver TG and TC and the relative expression of collagen-1 alpha gene were tested, and for the other part, liver samples was taken for pathological analysis.
structure (smiles),measurement,setting,value
O=C(O)c1cnc(N2C(=O)CCc3cc(OCc4c(-c5c(Cl)cccc5Cl)noc4C4CC4)ccc32)c(Cl)c1 [Compound 37],blood biochemical ALT/AST indicators,"15 mg/kg, FIG. 1",significant decrease
same,gene expression of collagen-alpha in the liver,15 mg/kg,significant decrease
same,"nonalcoholic fatty liver score NAFLD (overall evaluation, pathological tissue analysis)","15 mg/kg, FIG. 5",significant reduction
same,total cholesterol (TC) and triglyceride (TG) levels in the liver,30 mg/kg,significant decrease
same,total cholesterol (TC) and triglyceride (TG) levels in the liver,60 mg/kg,significant decrease
same,gene expression of collagen-alpha in the liver,60 mg/kg,significant decrease
same,liver fibrosis (pathological tissue analysis),"60 mg/kg, FIG. 4",significant reduction
same,"nonalcoholic fatty liver score NAFLD (overall evaluation, pathological tissue analysis)","60 mg/kg, FIG. 5",significant reduction
same,"single steatosis, inflammatory molecules and ballooning change","60 mg/kg, FIG. 5",remarkable efficacy
